# Experimental data: PMC12615753, “Glutathione as a taste modulator: molecular mechanisms of interaction with umami and sweet taste receptors” (Food Chemistry: Molecular Sciences, 2025)
# Target: T1, hTAS1R1 A302W/rTAS1R3 (UniProt Q7RTX1+Q923K1, A302W)
# T1 construct: UniProtKB number Q7RTX1–1); The cDNA coding region of rTAS1R3 was synthesized with optimized-codon usage for human expression; expressed in transfected cells; host or cells: HEK293T/17
# T1 sequence (Q7RTX1 21-841 A302W): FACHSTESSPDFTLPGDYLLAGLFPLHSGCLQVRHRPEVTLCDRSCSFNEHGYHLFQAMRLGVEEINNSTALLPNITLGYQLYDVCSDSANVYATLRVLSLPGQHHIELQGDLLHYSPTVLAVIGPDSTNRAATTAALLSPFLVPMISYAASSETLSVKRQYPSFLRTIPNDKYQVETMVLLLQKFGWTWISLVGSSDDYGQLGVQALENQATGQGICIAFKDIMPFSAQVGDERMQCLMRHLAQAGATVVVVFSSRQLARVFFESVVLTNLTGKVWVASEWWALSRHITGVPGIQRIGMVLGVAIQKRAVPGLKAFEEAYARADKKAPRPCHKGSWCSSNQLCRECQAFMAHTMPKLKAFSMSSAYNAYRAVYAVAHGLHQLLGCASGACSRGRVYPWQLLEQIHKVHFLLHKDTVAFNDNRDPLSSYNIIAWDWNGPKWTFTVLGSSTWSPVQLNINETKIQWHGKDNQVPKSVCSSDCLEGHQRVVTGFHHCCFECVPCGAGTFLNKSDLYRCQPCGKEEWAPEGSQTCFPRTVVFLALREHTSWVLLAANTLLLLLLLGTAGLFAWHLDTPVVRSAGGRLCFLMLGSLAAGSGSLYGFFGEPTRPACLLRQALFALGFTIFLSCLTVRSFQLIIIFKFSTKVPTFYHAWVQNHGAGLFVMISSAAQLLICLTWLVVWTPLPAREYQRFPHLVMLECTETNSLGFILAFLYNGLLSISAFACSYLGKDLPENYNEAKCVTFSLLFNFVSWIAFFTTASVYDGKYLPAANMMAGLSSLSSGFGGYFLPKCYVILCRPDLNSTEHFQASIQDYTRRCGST
# T1 sequence (Q923K1 21-858): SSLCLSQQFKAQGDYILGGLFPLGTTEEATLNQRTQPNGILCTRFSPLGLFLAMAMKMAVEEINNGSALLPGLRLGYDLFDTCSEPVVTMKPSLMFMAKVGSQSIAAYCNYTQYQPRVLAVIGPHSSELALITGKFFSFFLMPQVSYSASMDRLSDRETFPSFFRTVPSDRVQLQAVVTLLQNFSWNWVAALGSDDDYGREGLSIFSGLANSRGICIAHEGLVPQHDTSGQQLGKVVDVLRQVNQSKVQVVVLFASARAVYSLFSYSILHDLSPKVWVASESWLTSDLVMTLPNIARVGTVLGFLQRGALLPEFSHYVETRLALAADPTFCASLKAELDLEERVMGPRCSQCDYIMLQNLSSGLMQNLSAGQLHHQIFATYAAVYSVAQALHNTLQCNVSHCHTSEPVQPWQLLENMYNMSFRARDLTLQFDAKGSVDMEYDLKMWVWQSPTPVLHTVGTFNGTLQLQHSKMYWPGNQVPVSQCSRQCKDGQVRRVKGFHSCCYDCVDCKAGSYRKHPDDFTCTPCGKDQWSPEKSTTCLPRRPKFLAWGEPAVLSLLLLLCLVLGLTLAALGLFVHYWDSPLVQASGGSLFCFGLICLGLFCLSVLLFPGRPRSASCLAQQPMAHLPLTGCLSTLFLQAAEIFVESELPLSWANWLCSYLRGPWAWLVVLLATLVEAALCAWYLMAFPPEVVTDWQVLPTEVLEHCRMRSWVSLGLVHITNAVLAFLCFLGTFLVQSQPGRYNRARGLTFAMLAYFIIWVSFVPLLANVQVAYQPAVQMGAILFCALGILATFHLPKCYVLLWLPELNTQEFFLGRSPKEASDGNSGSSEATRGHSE
# Test: Calcium assay, hTAS1R1 mutant co-expressed with rTAS1R3
# Format: cell-based, human, rat
# Text: Chimeric Gα proteins, such as Gα16Gust44, Gα16Gi3 or Gα15i2, are widely used in the functional expression of TAS1R receptors ([Backes et al., 2015]; [Suess et al., 2015]; [Toda et al., 2021], [Toda et al., 2013], [Toda et al., 2018]; [Zhang et al., 2008]). Chimeric Gα15i2 (([Toda et al., 2013]), Supplementary data) was generated by replacing the last five residues of the C-terminal tail of rat Gα15i2 (EINLL) (UniProt number G3V6N8; https://www.uniprot.org/uniprot/) with the counterpart sequence from human GNAI2 (DCGLF) (UniProt number P04899-1) and cloning into the pcDNA3.1/Hygro vector (Invitrogen, Thermo Fisher Scientific, Illkirch, France) between the HindIII and NotI restriction sites, resulting in the plasmid pcDNA3.1-Gα15i2. Chimeric Gα16Gust44 construct have already been reported ([Raliou et al., 2011]). Briefly, Gα16Gust44 was generated by replacing the C-terminal of Gα16 with the C-terminal 44 residues of gustducin. As previously described, hTAS1R1 was amplified from human fungiform papillae cDNA and cloned and inserted into pcDNA3 (Invitrogen), generating pcDNA3-TAS1R1-WT (wild-type) ([Raliou et al., 2011]). […] The cDNA coding region of rTAS1R3 was synthesized with optimized-codon usage for human expression (Genewiz) and was cloned and inserted into the mammalian pcDNA4/myc-HisA (Invitrogen) expression vector between the EcoRI and NotI restriction sites, resulting in the plasmid pcDNA4-rTAS1R3. […] The sequence integrity of all the plasmid constructs was verified via automated DNA sequencing (Genewiz).
# The hTAS1R1 mutants were co-expressed with the rTAS1R3 subunit in HEK293 cells. […] As a control, the functionality of the mutated receptors was checked after stimulation with S807 (Fig. S8), which interacts with TAS1R1-TMD ([Zhang et al., 2008]).
Compound,EC50 [mM],"Max ∆F/F0 (A302W, GSH)","R1 = mutant EC50/WT EC50 (A302W, GSH)","response to the agonist alone, vs WT (A302W)"
"N[C@@H](CCC(=O)N[C@@H](CS)C(=O)NCC(=O)O)C(=O)O [GSH, γ-L-glutamyl-L-cysteinyl-glycine]",5.32 ± 2.54,0.09 ± 0.01,2.1,–
"N[C@@H](CCC(=O)O)C(=O)O [L-Glu, L-glutamic acid, reference compound]",–,–,–,completely suppressed
"CCCC(CCC)NC(=O)c1ccc2c(c1)OCO2 [S807, N-(heptan-4-yl)benzo[d][1,3]dioxole-5-carboxamide, reference compound]",–,–,–,strongly affected
